The assay is described as follows: Inhibition of Pisum sativum (pea) adenylate deaminase.

What is called IC50 is the midpoint of a concentration-inhibition curve. A high value points to a need for much substance. `O=P(O)(O)OC[C@H]1O[C@@H](c2n[nH]c3cncnc23)[C@H](O)[C@@H]1O`: the IC50 is 100 nM.

Values taken from BindingDB's records for doi:10.1016/s0960-894x(99)00298-x (Agrevo, 1999).
